Test results as given in paper PMC3753068 (Small (Weinheim an der Bergstrasse, Germany), 2012).
Where a SMILES comes first, the peptide text is derived from it. The star is where a group is joined. X1 = O=C(CCCCCCCCCCS)NCCCOCCOCCOCCCN*

Assay: Stability of peptides in human serum
Assay type: in vitro ADME

CC(=O)N[C@@H](CC(=O)O)C(=O)N[C@@H](CC(C)C)C(=O)N[C@@H](Cc1c[nH]c2ccccc12)C(=O)N[C@@H](CCCCN)C(=O)N[C@@H](CC(C)C)C(=O)NCCCOCCOCCOCCCNC(=O)CCCCCCCCCCS [Compound 1] (Ac-DLWKL-X1; C-terminus assumed)
half-life: 17.5 min
